The values that follow come from patent US9938261B2, “Heterocyclic compounds and methods of use thereof” (AMBIT BIOSCIENCES CORPORATION, priority 2011, dated 2018).

The target of one assay is T1, PDGFRβ (Homo sapiens, UniProt P09619).
T1 construct: made in house
The experiment in a line: Competition binding assay, PDGFRβ Kd. The following applies: competition binding. An outline of the steps: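 Kinases as T7-phage fusions or HEK-293-expressed DNA-tagged constructs competed against immobilized biotinylated ligand on streptavidin beads, 1 h at room temperature in binding buffer. Bound kinase eluted and quantified by qPCR; Kd from eleven-point threefold dilution series.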

The test system of another assay is M-NFS-60 cells. Briefly: M-NFS-60 cell proliferation assay (Alamar Blue). It is filed as cell-based, mouse. To be noted: Mus musculus; M-NFS-60 cell proliferation; read-out: CSF1R M-NFS-60 CTB:IC50. An outline of the steps:
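Alamar Blue reduction (3 h; 560/590 nm) measured viability after 72 h, 37 °C treatment with nine half-log compound concentrations at 0.5% DMSO. Cells: M-CSF-dependent (20 ng/mL) murine M-NFS-60 in RPMI plus 10% FBS. IC50s, averaged from duplicates, reflect half-maximal inhibition of proliferation relative to control.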

Another assay addresses CSF1R (Homo sapiens, UniProt P07333). Briefly: HEK293 CSF1R phosphorylation MSD assay. To be noted: HEK293 cells, M-CSF stimulated CSF1R phosphorylation, MSD; read-out: HEK293 pCSF1R M-CSF MSD:IC50. The assay is classed as cell-based. More on the design: expressed in transfected cells; host or cells: HEK293. An outline of the steps: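 Ligand-induced CSF1R autophosphorylation was measured by MSD sandwich assay: CSF1R-FKBP from lysates captured via FK506, anti-phosphotyrosine readout. Cells were exposed to compound for 2 h (9-point, half-log, 0.5% DMSO) before 5 min 50 ng/mL M-CSF. Reported IC50 is the mean of duplicate-plate IC50s relative to DMSO control.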

Assay [1] addresses kinase panel containing either 386 or 392 distinct kinases. The experiment in a line: Kinase selectivity score S10 from competition binding panel. The following applies: 10 μM, panel of 386 or 392 distinct kinases. An outline of the steps: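 S10 is the number of kinases with percent-of-control under 10, divided by all distinct wild-type kinases tested, from a single 10 μM concentration. Binding measured by qPCR of kinase recovered from ligand-coated beads after 1 h equilibrium at room temperature; kinases were phage fusions or DNA-tagged HEK-293 products.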

Chain of CSF1R (P07333 20-972): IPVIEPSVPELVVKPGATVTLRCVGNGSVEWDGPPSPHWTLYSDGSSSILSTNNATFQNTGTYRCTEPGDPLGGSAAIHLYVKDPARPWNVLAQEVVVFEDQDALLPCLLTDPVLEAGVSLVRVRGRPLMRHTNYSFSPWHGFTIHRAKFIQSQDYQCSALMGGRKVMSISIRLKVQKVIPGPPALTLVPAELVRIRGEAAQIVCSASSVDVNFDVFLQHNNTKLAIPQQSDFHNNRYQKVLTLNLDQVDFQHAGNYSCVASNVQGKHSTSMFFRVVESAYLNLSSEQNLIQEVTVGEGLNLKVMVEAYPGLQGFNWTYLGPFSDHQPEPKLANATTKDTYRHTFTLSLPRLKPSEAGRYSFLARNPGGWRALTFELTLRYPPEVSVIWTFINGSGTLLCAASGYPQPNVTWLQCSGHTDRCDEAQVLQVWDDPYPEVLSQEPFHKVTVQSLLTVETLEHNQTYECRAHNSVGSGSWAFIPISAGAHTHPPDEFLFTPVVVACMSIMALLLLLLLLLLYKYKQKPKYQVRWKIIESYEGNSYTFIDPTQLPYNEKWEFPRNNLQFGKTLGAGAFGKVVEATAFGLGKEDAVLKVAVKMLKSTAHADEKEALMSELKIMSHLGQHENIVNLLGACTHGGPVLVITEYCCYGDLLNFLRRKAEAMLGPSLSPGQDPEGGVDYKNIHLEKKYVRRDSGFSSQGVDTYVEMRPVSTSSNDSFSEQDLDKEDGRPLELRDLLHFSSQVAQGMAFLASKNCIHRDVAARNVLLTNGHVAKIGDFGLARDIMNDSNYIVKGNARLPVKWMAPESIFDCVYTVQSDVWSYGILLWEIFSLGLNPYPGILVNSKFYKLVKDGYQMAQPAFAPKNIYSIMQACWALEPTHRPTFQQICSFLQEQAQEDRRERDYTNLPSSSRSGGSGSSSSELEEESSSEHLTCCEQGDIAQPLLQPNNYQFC
T1 sequence (P09619 33-1106): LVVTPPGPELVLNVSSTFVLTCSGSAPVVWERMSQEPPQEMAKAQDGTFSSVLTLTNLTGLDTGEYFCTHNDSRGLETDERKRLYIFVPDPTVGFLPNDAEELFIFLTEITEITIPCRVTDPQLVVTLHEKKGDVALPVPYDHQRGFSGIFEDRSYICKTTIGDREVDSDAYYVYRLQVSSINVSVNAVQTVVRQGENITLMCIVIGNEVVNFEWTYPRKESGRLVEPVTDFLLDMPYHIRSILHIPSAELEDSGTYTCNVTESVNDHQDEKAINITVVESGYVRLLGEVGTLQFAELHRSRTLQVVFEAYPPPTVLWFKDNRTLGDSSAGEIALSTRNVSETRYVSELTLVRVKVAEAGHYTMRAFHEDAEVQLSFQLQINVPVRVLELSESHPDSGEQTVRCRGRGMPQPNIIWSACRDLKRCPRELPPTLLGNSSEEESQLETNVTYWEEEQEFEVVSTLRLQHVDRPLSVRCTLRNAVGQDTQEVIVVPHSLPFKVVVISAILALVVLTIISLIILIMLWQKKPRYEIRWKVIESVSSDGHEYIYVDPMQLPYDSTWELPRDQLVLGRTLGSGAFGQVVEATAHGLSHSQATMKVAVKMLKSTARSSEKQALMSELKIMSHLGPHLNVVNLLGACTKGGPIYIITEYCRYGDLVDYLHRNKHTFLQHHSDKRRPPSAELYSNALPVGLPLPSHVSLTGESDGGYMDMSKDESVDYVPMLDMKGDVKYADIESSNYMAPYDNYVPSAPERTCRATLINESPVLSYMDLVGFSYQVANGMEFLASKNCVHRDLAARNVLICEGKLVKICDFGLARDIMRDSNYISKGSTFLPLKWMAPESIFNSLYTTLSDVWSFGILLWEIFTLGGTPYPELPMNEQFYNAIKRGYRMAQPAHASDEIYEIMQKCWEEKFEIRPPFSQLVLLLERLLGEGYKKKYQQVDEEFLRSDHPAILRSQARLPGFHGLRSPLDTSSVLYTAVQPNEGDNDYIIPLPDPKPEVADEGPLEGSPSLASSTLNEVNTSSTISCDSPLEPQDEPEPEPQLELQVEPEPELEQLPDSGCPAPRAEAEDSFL

As to `O[C@@H]1CCCC[C@H]1Nc1nc2ccc(Cn3cnc4cc(F)ccc43)cc2s1` [Example 129, (1R,2R)-2-((6-((5-fluoro-1H-benzo[d]imidazol-1-yl)methyl)benzo[d]thiazol-2-yl)amino)cyclohexanol], the Kd (commonly the free concentration of one partner at which half of the binding sites on the other are occupied at equilibrium, for simple one-to-one binding) at PDGFRβ is no more than 0.05 µM. Moreover, the IC50 – broadly, the concentration needed to halve the response being measured – in the assay on M-NFS-60 cells is 0.05 to 0.4 µM; at CSF1R it was no more than 0.05 µM. Further, in assay [1], the “Kinase specificity S(10)” value is on record as “B (0.01<B≤0.02)”.
Compound `O[C@@H]1CCCC[C@H]1Nc1nc2ccc(Cn3cnc4cc(C(F)(F)F)ccc43)cc2s1` [Example 130, (1R,2R)-2-((6-((5-(trifluoromethyl)-1H-benzo[d]imidazol-1-yl)methyl)benzo[d]thiazol-2-yl)amino)cyclohexanol] showed a Kd at PDGFRβ of no more than 0.05 µM. Moreover, the IC50 in the assay on M-NFS-60 cells was in the range of 0.05 to 0.4 µM; on CSF1R, 0.2 to 0.5 µM. Moreover, in assay [1], the “Kinase specificity S(10)” value is “A (A≤0.01)”.
On PDGFRβ, `O[C@@H]1CCCC[C@H]1Nc1nc2ccc(Cc3cnc4cccnn34)cc2s1` [Example 131, (1R,2R)-2-((6-(imidazo[1,2-b]pyridazin-3-ylmethyl)benzo[d]thiazol-2-yl)amino)cyclohexanol] showed a dissociation constant (Kd) of no more than 0.05 µM. In addition, the IC50 in the assay on M-NFS-60 cells and on CSF1R was no more than 0.05 µM throughout. In addition, the “Kinase specificity S(10)” value in assay [1] is given as “B (0.01<B≤0.02)”.
Consider `O[C@@H]1CCCC[C@H]1Nc1nc2ccc(Cn3cnc4cc(F)cnc43)cc2o1` [Example 132, (1R,2R)-2-((6-((6-fluoro-3H-imidazo[4,5-b]pyridin-3-yl)methyl)benzo[d]oxazol-2-yl)amino)cyclohexanol], for which the dissociation constant Kd on PDGFRβ is no more than 0.05 µM. The IC50 in the assay on M-NFS-60 cells lay within 0.05 to 0.4 µM; on CSF1R, 0.05 to 0.2 µM. The “Kinase specificity S(10)” value in assay [1] is “C (C>0.02)”.
The like results for `OC[C@@H]1CCCC[C@H]1Nc1nc2ccc(Cn3cnc4cc(Br)cnc43)cc2s1` [Example 133, ((1R,2R)-2-((6-((6-bromo-3H-imidazo[4,5-b]pyridin-3-yl)methyl)benzo[d]thiazol-2-yl)amino)cyclohexyl)methanol] were, in that order, no more than 0.05 µM, 0.05 to 0.4 µM, 0.05 to 0.2 µM and “A (A≤0.01)”.
Compound `Cn1nnnc1-c1cnc2c(c1)ncn2Cc1ccc2nc(N[C@@H]3CCCC[C@H]3O)sc2c1` [Example 134, (1R,2R)-2-((6-((6-(1-methyl-1H-tetrazol-5-yl)-3H-imidazo[4,5-b]pyridin-3-yl)methyl)benzo[d]thiazol-2-yl)amino)cyclohexanol] displayed a Kd at PDGFRβ of no more than 0.05 µM. The IC50 with M-NFS-60 cells was 0.05 to 0.4 µM; at CSF1R it was no more than 0.05 µM. In addition, in assay [1], the “Kinase specificity S(10)” value is “A (A≤0.01)”.
Regarding `OC[C@H]1CCCC[C@H]1Nc1nc2ccc(Cn3cnc4cc(Br)cnc43)cc2s1` [Example 136, ((1S,2R)-2-((6-((6-bromo-3H-imidazo[4,5-b]pyridin-3-yl)methyl)benzo[d]thiazol-2-yl)amino)cyclohexyl)methanol], at PDGFRβ, the Kd is no more than 0.05 µM. Also, the values for the IC50 in the assay on M-NFS-60 cells and on CSF1R were 0.05 to 0.4 µM and 0.05 to 0.2 µM, respectively. In addition, the “Kinase specificity S(10)” value in assay [1] is “B (0.01<B≤0.02)”.
The like results for `O[C@@H]1CCCC[C@H]1Nc1nc2ccc(Cn3cnc4cc(Cl)c(Cl)nc43)cc2s1` [Example 137, (1R,2R)-2-((6-((5,6-dichloro-3H-imidazo[4,5-b]pyridin-3-yl)methyl)benzo[d]thiazol-2-yl)amino)cyclohexanol] were, in that order, no more than 0.05 µM, no more than 0.05 µM, no more than 0.05 µM and “A (A≤0.01)”.
The like results for `CCOc1ccc2c(c1)ncn2Cc1ccc2nc(N[C@@H]3CCCC[C@H]3O)sc2c1` [Example 138, (1R,2R)-2-((6-((5-ethoxy-1H-benzo[d]imidazol-1-yl)methyl)benzo[d]thiazol-2-yl)amino)cyclohexanol] were, in that order, no more than 0.05 µM, no more than 0.05 µM, no more than 0.05 µM and “A (A≤0.01)”.
The like results for `N#Cc1cc2ncn(Cc3ccc4nc(N[C@@H]5CCCC[C@H]5O)sc4c3)c2nc1C#N` [Example 139, 3-((2-(((1R,2R)-2-hydroxycyclohexyl)amino)benzo[d]thiazol-6-yl)methyl)-3H-imidazo[4,5-b]pyridine-5,6-dicarbonitrile] were, in that order, 0.05 to 0.5 µM, 0.4 to 1.5 µM, 0.2 to 0.5 µM and “A (A≤0.01)”.
On to `N#Cc1cnc2c(c1)ncn2Cc1ccc2nc(N[C@@H]3CCCC[C@H]3CO)sc2c1` [Example 140, 3-((2-(((1R,2R)-2-(hydroxymethyl)cyclohexyl)amino)benzo[d]thiazol-6-yl)methyl)-3H-imidazo[4,5-b]pyridine-6-carbonitrile], for which, on PDGFRβ, the Kd was in the range of 0.05 to 0.5 µM. The IC50 in the assay on M-NFS-60 cells lay in the range of 0.4 to 1.5 µM; on CSF1R, 0.2 to 0.5 µM. For the same compound, the “Kinase specificity S(10)” value in assay [1] is recorded as “A (A≤0.01)”.
The like results for `O[C@@H]1CCCC[C@H]1Nc1nc2ccc(Cn3cnc4cc(-n5cccn5)cnc43)cc2s1` [Example 141, (1R,2R)-2-((6-((6-(1H-pyrazol-1-yl)-3H-imidazo[4,5-b]pyridine-3-yl)methyl)benzo[d]thiazol-2-yl)amino)cyclohexanol] were, in that order, no more than 0.05 µM, no more than 0.05 µM, no more than 0.05 µM and “B (0.01<B≤0.02)”.
As for `O[C@@H]1CCCC[C@H]1Nc1nc2ccc(Cc3cnc4cccnn34)cc2o1` [Example 142, (1R,2R)-2-((6-(imidazo[1,2-b]pyridazin-3-ylmethyl)benzo[d]oxazol-2-yl)amino)cyclohexanol], the dissociation constant (Kd) on PDGFRβ was no more than 0.05 µM. For the same compound, the IC50 with M-NFS-60 cells is 0.05 to 0.4 µM; at CSF1R, no more than 0.05 µM. For the same compound, the “Kinase specificity S(10)” value in assay [1] is “C (C>0.02)”.
On PDGFRβ, `CNC(=O)c1ccc2ncc(Cc3ccc4nc(N[C@@H]5CCCC[C@H]5O)sc4c3)n2n1` [Example 143, 3-((2-(((1R,2R)-2-hydroxycyclohexyl)amino)benzo[d]thiazol-6-yl)methyl)-N-methylimidazo[1,2-b]pyridazine-6-carboxamide] came in with a dissociation constant Kd of 0.5 to 2 µM. Further, the half-maximal inhibitory concentration (IC50) lay within 0.4 to 1.5 µM with M-NFS-60 cells and 0.2 to 0.5 µM at CSF1R. For the same compound, in assay [1], the “Kinase specificity S(10)” value is on record as “B (0.01<B≤0.02)”.
The like results for `OCc1ccc2ncc(Cc3ccc4nc(N[C@@H]5CCCC[C@H]5O)sc4c3)n2n1` [Example 144, (1R,2R)-2-((6-((6-(hydroxymethyl)imidazo[1,2-b]pyridazin-3-yl)methyl)benzo[d]thiazol-2-yl)amino)cyclohexanol] were, in that order, 0.05 to 0.5 µM, 0.05 to 0.4 µM, 0.05 to 0.2 µM and “B (0.01<B≤0.02)”.
For `O[C@@H]1CCCC[C@H]1Nc1nc2ccc(Cn3cnc4cc(-n5cncn5)cnc43)cc2s1` [Example 145, (1R,2R)-2-((6-((6-(1H-1,2,4-triazol-1-yl)-3H-imidazo[4,5-b]pyridin-3-yl)methyl)benzo[d]thiazol-2-yl)amino)cyclohexanol], in that order: no more than 0.05 µM, 0.05 to 0.4 µM, no more than 0.05 µM and “A (A≤0.01)”.
For `O[C@@H]1CCCC[C@H]1Nc1nc2ccc(Cn3cnc4cc(I)cnc43)cc2s1` [Example 146, (1R,2R)-2-((6-((6-iodo-3H-imidazo[4,5-b]pyridin-3-yl)methyl)benzo[d]thiazol-2-yl)amino)cyclohexanol], in that order: no more than 0.05 µM, 0.05 to 0.4 µM, no more than 0.05 µM and “B (0.01<B≤0.02)”.
On to `Oc1ccc2c(c1)ncn2Cc1ccc2nc(N[C@@H]3CCCC[C@H]3O)sc2c1` [Example 147, 1-((2-(((1R,2R)-2-hydroxycyclohexyl)amino)benzo[d]thiazol-6-yl)methyl)-1H-benzo[d]imidazol-5-ol], for which, on PDGFRβ, the Kd is no more than 0.05 µM. Also, the values for the IC50 in the assay with M-NFS-60 cells and at CSF1R were 0.05 to 0.4 µM and no more than 0.05 µM, respectively. Moreover, the “Kinase specificity S(10)” value in assay [1] is recorded as “A (A≤0.01)”.
`O[C@@H]1CCCC[C@H]1Nc1nc2ccc(Cn3cnc4cc(F)cc(F)c43)cc2s1` [Example 148, (1R,2R)-2-((6-((5,7-difluoro-1H-benzo[d]imidazol-1-yl)methyl)benzo[d]thiazol-2-yl)amino)cyclohexanol]: at PDGFRβ, the equilibrium dissociation constant (Kd) was in the range of 0.05 to 0.5 µM. In addition, the values for the 50% inhibitory concentration (IC50) with M-NFS-60 cells and at CSF1R were 0.05 to 0.4 µM and 0.05 to 0.2 µM, respectively. Also, the “Kinase specificity S(10)” value in assay [1] is on record as “A (A≤0.01)”.
The like results for `O[C@@H]1CCCC[C@H]1Nc1nc2ccc(Cn3cnc4cc(OC(F)(F)F)ccc43)cc2s1` [Example 149, (1R,2R)-2-((6-((5-(trifluoromethoxy)-1H-benzo[d]imidazol-1-yl)methyl)benzo[d]thiazol-2-yl)amino)cyclohexanol] were, in that order, no more than 0.05 µM, 0.05 to 0.4 µM, 0.2 to 0.5 µM and “A (A≤0.01)”.
